The data set has as its target ATXN2. Briefly: mouse, dose not given. The conditions noted are these: ASO.

HELM strings list units from the 5' end as sugar, base in round brackets, then linkage (d deoxyribose, r ribose, m 2'-O-methyl, p phosphodiester). Strings are as the collection lists them; they lack the last nucleoside at the 3' end of the tested compound. [moe] = 2'-O-(2-methoxyethyl) (MOE); [sp] = phosphorothioate linkage; [m5C] = 5-methylcytosine

“RNA1{[moe](A)[sp].[moe](A)p.[moe](A)p.[moe](G)p.[moe](A)p.d([m5C])[sp].d(T)[sp].d(T)[sp].d(T)[sp].d(G)[sp].d(A)[sp].d(A)[sp].d(A)[sp].d(T)[sp].d([m5C])[sp].[moe](T)p.[moe]([m5C])p.[moe](A)[sp].[moe]([m5C])}$$$$ (last 3' nucleoside missing)” registered a 3 h FOB score of 1 score 0-7. The substance “RNA1{[moe](A)[sp].[moe](A)p.[moe](G)p.[moe](A)p.[moe](A)p.d(T)[sp].d([m5C])[sp].d([m5C])[sp].d(T)[sp].d(T)[sp].d(A)[sp].d(G)[sp].d([m5C])[sp].d(A)[sp].d([m5C])[sp].[moe](T)p.[moe](T)p.[moe](G)[sp].[moe](G)}$$$$ (last 3' nucleoside missing)” showed a 3 h FOB score of 6.25 score 0-7. As for “RNA1{[moe](A)[sp].[moe](A)p.[moe](G)p.[moe](A)p.[moe](T)p.d(G)[sp].d(G)[sp].d(G)[sp].d(T)[sp].d(T)[sp].d(T)[sp].d(T)[sp].d(T)[sp].d(T)[sp].d(T)[sp].[moe](G)p.[moe]([m5C])p.[moe](T)[sp].[moe](T)}$$$$ (last 3' nucleoside missing)”, the 3 h FOB score came to 4 score 0-7.

In turn, “RNA1{[moe](A)[sp].[moe](A)p.[moe](G)p.[moe](A)p.[moe]([m5C])p.d(T)[sp].d(T)[sp].d(T)[sp].d(T)[sp].d(T)[sp].d(A)[sp].d(T)[sp].d(G)[sp].d(T)[sp].d(T)[sp].[moe](G)p.[moe]([m5C])p.[moe](T)[sp].[moe]([m5C])}$$$$ (last 3' nucleoside missing)” had a 3 h FOB score of 3.5 score 0-7. In turn, “RNA1{[moe](A)[sp].[moe](A)p.[moe](G)p.[moe](T)p.[moe](A)p.d(G)[sp].d(T)[sp].d(G)[sp].d(T)[sp].d(T)[sp].d(T)[sp].d(G)[sp].d(G)[sp].d(G)[sp].d(A)[sp].[moe](T)p.[moe](G)p.[moe]([m5C])[sp].[moe](T)}$$$$ (last 3' nucleoside missing)” gave a 3 h FOB score of 6 score 0-7. For “RNA1{[moe](A)[sp].[moe](A)p.[moe](G)p.[moe](T)p.[moe](T)p.d([m5C])[sp].d([m5C])[sp].d([m5C])[sp].d(A)[sp].d(T)[sp].d(T)[sp].d(G)[sp].d([m5C])[sp].d(A)[sp].d(T)[sp].[moe](T)p.[moe](G)p.[moe](T)[sp].[moe](T)}$$$$ (last 3' nucleoside missing)”, the 3 h FOB score amounted to 6 score 0-7. “RNA1{[moe](A)[sp].[moe](A)p.[moe](G)p.[moe](T)p.[moe]([m5C])p.d(T)[sp].d(T)[sp].d(G)[sp].d(T)[sp].d(T)[sp].d([m5C])[sp].d(A)[sp].d(G)[sp].d(T)[sp].d(G)[sp].[moe](T)p.[moe]([m5C])p.[moe]([m5C])[sp].[moe](T)}$$$$ (last 3' nucleoside missing)” returned a 3 h FOB score of 4.5 score 0-7. For “RNA1{[moe](A)[sp].[moe](A)p.[moe](G)p.[moe]([m5C])p.[moe](T)p.d(T)[sp].d(A)[sp].d(G)[sp].d(A)[sp].d(G)[sp].d(T)[sp].d(T)[sp].d(T)[sp].d(T)[sp].d(T)[sp].[moe](G)p.[moe]([m5C])p.[moe]([m5C])[sp].[moe](T)}$$$$ (last 3' nucleoside missing)”, the 3 h FOB score came out at 4 score 0-7. “RNA1{[moe](A)[sp].[moe](A)p.[moe](T)p.[moe](A)p.[moe](G)p.d(G)[sp].d(G)[sp].d(T)[sp].d(T)[sp].d(T)[sp].d(T)[sp].d(G)[sp].d(T)[sp].d(T)[sp].d([m5C])[sp].[moe](A)p.[moe](T)p.[moe](G)[sp].[moe]([m5C])}$$$$ (last 3' nucleoside missing)” displayed a 3 h FOB score of 3.75 score 0-7. For “RNA1{[moe](A)[sp].[moe](A)p.[moe](T)p.[moe](A)p.[moe](T)p.d(T)[sp].d([m5C])[sp].d([m5C])[sp].d(A)[sp].d(T)[sp].d(A)[sp].d([m5C])[sp].d(A)[sp].d(G)[sp].d(A)[sp].[moe](T)p.[moe]([m5C])p.[moe](G)[sp].[moe]([m5C])}$$$$ (last 3' nucleoside missing)”, the 3 h FOB score came to 2.5 score 0-7. On to “RNA1{[moe](A)[sp].[moe](A)p.[moe](T)p.[moe](G)p.[moe]([m5C])p.d([m5C])[sp].d(G)[sp].d(T)[sp].d(T)[sp].d(T)[sp].d(T)[sp].d(T)[sp].d(A)[sp].d([m5C])[sp].d(T)[sp].[moe]([m5C])p.[moe](T)p.[moe]([m5C])[sp].[moe](A)}$$$$ (last 3' nucleoside missing)”, for which the 3 h FOB score stood at 0 score 0-7.

For the substance “RNA1{[moe](A)[sp].[moe](A)p.[moe]([m5C])p.[moe](A)p.[moe](G)p.d([m5C])[sp].d(T)[sp].d([m5C])[sp].d(T)[sp].d(G)[sp].d(T)[sp].d(T)[sp].d([m5C])[sp].d(G)[sp].d(A)[sp].[moe](T)p.[moe](G)p.[moe]([m5C])[sp].[moe](A)}$$$$ (last 3' nucleoside missing)”, the 3 h FOB score came to 6 score 0-7. As for “RNA1{[moe](A)[sp].[moe](A)p.[moe]([m5C])p.[moe](G)p.[moe](A)p.d(T)[sp].d(G)[sp].d(A)[sp].d(T)[sp].d([m5C])[sp].d(T)[sp].d(G)[sp].d(G)[sp].d(T)[sp].d(A)[sp].[moe](T)p.[moe]([m5C])p.[moe]([m5C])[sp].[moe](T)}$$$$ (last 3' nucleoside missing)”, the 3 h FOB score was 7 score 0-7. The substance “RNA1{[moe](A)[sp].[moe](A)p.[moe]([m5C])p.[moe](G)p.[moe](G)p.d(A)[sp].d(G)[sp].d(T)[sp].d([m5C])[sp].d(A)[sp].d([m5C])[sp].d(T)[sp].d(G)[sp].d(T)[sp].d(T)[sp].[moe](T)p.[moe](T)p.[moe](T)[sp].[moe]([m5C])}$$$$ (last 3' nucleoside missing)” had a 3 h FOB score of 5.5 score 0-7. The substance “RNA1{[moe](A)[sp].[moe](A)p.[moe]([m5C])p.[moe](T)p.[moe](G)p.d(G)[sp].d(A)[sp].d(T)[sp].d(T)[sp].d([m5C])[sp].d(T)[sp].d(G)[sp].d(T)[sp].d(A)[sp].d([m5C])[sp].[moe](T)p.[moe](T)p.[moe](T)[sp].[moe](T)}$$$$ (last 3' nucleoside missing)” returned a 3 h FOB score of 4.75 score 0-7. Consider “RNA1{[moe](A)[sp].[moe](A)p.[moe]([m5C])p.[moe]([m5C])p.[moe](A)p.d(T)[sp].d(G)[sp].d([m5C])[sp].d([m5C])[sp].d(T)[sp].d([m5C])[sp].d(T)[sp].d(T)[sp].d(T)[sp].d(T)[sp].[moe](T)p.[moe](T)p.[moe]([m5C])[sp].[moe](T)}$$$$ (last 3' nucleoside missing)”, for which the 3 h FOB score came to 0 score 0-7. The substance “RNA1{[moe](A)[sp].[moe](A)p.[moe]([m5C])p.[moe]([m5C])p.[moe](A)p.d([m5C])[sp].d(T)[sp].d(G)[sp].d(A)[sp].d(T)[sp].d(T)[sp].d(T)[sp].d(A)[sp].d(T)[sp].d(A)[sp].[moe]([m5C])p.[moe](A)p.[moe]([m5C])[sp].[moe](T)}$$$$ (last 3' nucleoside missing)” yielded a 3 h FOB score of 2.5 score 0-7. Consider “RNA1{[moe](A)[sp].[moe](G)p.[moe](A)p.[moe](G)p.[moe](T)p.d(T)[sp].d(T)[sp].d(T)[sp].d(T)[sp].d(G)[sp].d([m5C])[sp].d([m5C])[sp].d(T)[sp].d(T)[sp].d([m5C])[sp].[moe]([m5C])p.[moe](A)p.[moe](T)[sp].[moe](T)}$$$$ (last 3' nucleoside missing)”, for which the 3 h FOB score worked out at 3 score 0-7. For the substance “RNA1{[moe](A)[sp].[moe](G)p.[moe](G)p.[moe](G)p.[moe](T)p.d(T)[sp].d(A)[sp].d(A)[sp].d(T)[sp].d(T)[sp].d(A)[sp].d(G)[sp].d(G)[sp].d(A)[sp].d(T)[sp].[moe]([m5C])p.[moe](T)p.[moe](A)[sp].[moe](T)}$$$$ (last 3' nucleoside missing)”, the 3 h FOB score was 6 score 0-7.

Turning to “RNA1{[moe](A)[sp].[moe](G)p.[moe](G)p.[moe](T)p.[moe](G)p.d(A)[sp].d(T)[sp].d(G)[sp].d(T)[sp].d(T)[sp].d(T)[sp].d([m5C])[sp].d(A)[sp].d(T)[sp].d(T)[sp].[moe](G)p.[moe](G)p.[moe](G)[sp].[moe](T)}$$$$ (last 3' nucleoside missing)”, the 3 h FOB score came to 4.5 score 0-7. Then “RNA1{[moe](A)[sp].[moe](G)p.[moe](G)p.[moe]([m5C])p.[moe](A)p.d(T)[sp].d(A)[sp].d(A)[sp].d(A)[sp].d(T)[sp].d(T)[sp].d(T)[sp].d([m5C])[sp].d(A)[sp].d(T)[sp].[moe]([m5C])p.[moe](T)p.[moe](T)[sp].[moe](A)}$$$$ (last 3' nucleoside missing)”, with 0 score 0-7; and “RNA1{[moe](A)[sp].[moe](G)p.[moe](T)p.[moe](A)p.[moe](A)p.d(A)[sp].d(A)[sp].d(G)[sp].d(T)[sp].d(T)[sp].d(T)[sp].d(T)[sp].d(T)[sp].d([m5C])[sp].d([m5C])[sp].[moe]([m5C])p.[moe](T)p.[moe](T)[sp].[moe](A)}$$$$ (last 3' nucleoside missing)”, with 3.25 score 0-7; and “RNA1{[moe](A)[sp].[moe](G)p.[moe](T)p.[moe](A)p.[moe](T)p.d([m5C])[sp].d(T)[sp].d([m5C])[sp].d(A)[sp].d(G)[sp].d(T)[sp].d(T)[sp].d(T)[sp].d(T)[sp].d(T)[sp].[moe](T)p.[moe](T)p.[moe](T)[sp].[moe](T)}$$$$ (last 3' nucleoside missing)”, with 2 score 0-7. For the substance “RNA1{[moe](A)[sp].[moe](G)p.[moe](T)p.[moe](G)p.[moe](T)p.d(T)[sp].d(T)[sp].d(G)[sp].d(G)[sp].d(G)[sp].d(A)[sp].d(T)[sp].d(G)[sp].d([m5C])[sp].d(T)[sp].[moe](T)p.[moe]([m5C])p.[moe](A)[sp].[moe](G)}$$$$ (last 3' nucleoside missing)”, the 3 h FOB score worked out at 6.5 score 0-7.

“RNA1{[moe](A)[sp].[moe](G)p.[moe](T)p.[moe](T)p.[moe]([m5C])p.d(A)[sp].d([m5C])[sp].d([m5C])[sp].d(T)[sp].d(G)[sp].d([m5C])[sp].d(A)[sp].d(T)[sp].d([m5C])[sp].d([m5C])[sp].[moe]([m5C])p.[moe](A)p.[moe](G)[sp].[moe](G)}$$$$ (last 3' nucleoside missing)” returned a 3 h FOB score of 5.5 score 0-7. With “RNA1{[moe](A)[sp].[moe](G)p.[moe](T)p.[moe]([m5C])p.[moe](A)p.d(T)[sp].d(G)[sp].d([m5C])[sp].d(T)[sp].d(T)[sp].d(A)[sp].d(T)[sp].d(A)[sp].d(A)[sp].d(A)[sp].[moe](G)p.[moe](T)p.[moe]([m5C])[sp].[moe]([m5C])}$$$$ (last 3' nucleoside missing)”, the 3 h FOB score amounted to 3.5 score 0-7.

The values above are taken from the OligoGym collection.
